From the supplement of paper PMC10307832

Assays:
Assay in all cases: relative viability (nuclei count vs DMSO), 5 days (fraction); higher = more cells survive
[1] = compound: C1=CC2=C(C=C(C(=C2N=C1)O)N=NC3=CC4=C(C=C3)C=C(C=C4)S(=O)(=O)O)S(=O)(=O)O
In short: (§1)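 Viability was defined as treated-well nuclei divided by vehicle-well nuclei, with the median taken over replicate plates. Cells from lung cancer lines sat overnight at 37 °C in 1536-well plates, received five √10-spaced library-drug doses by pinning on vehicle-anchored plates, and grew 5 days without medium change before one-step fixation, permeabilisation and Hoechst staining, 4× imaging and MetaXpress nuclear counts. Only plates with control CV under 25% and at least one doubling were kept.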

AT-7519 = compound: O=C(NC1CCNCC1)c1n[nH]cc1NC(=O)c1c(Cl)cccc1Cl [AT-7519]
In short: as §1

[2] = compound: C1=CC2=C(C=C(C(=C2N=C1)O)N=NC3=CC4=C(C=C3)C=C(C=C4)S(=O)(=O)O)S(=O)(=O)O + CC1(C)CCC(c2ccc(Cl)cc2)=C(CN2CCN(c3ccc(C(=O)NS(=O)(=O)c4ccc(N[C@H](CCN5CCOCC5)CSc5ccccc5)c(S(=O)(=O)C(F)(F)F)c4)cc3)CC2)C1 [Navitoclax] (partner 0.5 µM)
In short: (§2)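 Medians of duplicate plates are given as relative viability. That measure is the nuclei count in treated wells divided by the count in vehicle wells. Counts were taken on 4× images of lung cancer cell lines in 1536-well plates, 5 days after pin-tool dosing the day after seeding with one drug alone or a fixed anchor-drug dose plus five library-drug doses (not always all listed) in √10 steps.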

AT-7519 + Phenformin = compound: O=C(NC1CCNCC1)c1n[nH]cc1NC(=O)c1c(Cl)cccc1Cl [AT-7519] + N=C(N)NC(=N)NCCc1ccccc1 [Phenformin] (partner 250 µM)
In short: as §2

Cell Line | relative viability ([1]; 0.08 µM) | relative viability ([1]; 0.253 µM) | relative viability ([1]; 0.8 µM) | relative viability ([1]; 2.53 µM) | relative viability ([1]; 8 µM) | relative viability (AT-7519; 0.01 µM) | relative viability (AT-7519; 0.03162 µM) | relative viability (AT-7519; 0.3162 µM) | relative viability (AT-7519; 1 µM) | relative viability ([2]; first compound 0.08 µM) | relative viability ([2]; first compound 0.253 µM) | relative viability ([2]; first compound 0.8 µM) | relative viability ([2]; first compound 2.53 µM) | relative viability ([2]; first compound 8 µM) | relative viability (AT-7519 + Phenformin; first compound 0.01 µM) | relative viability (AT-7519 + Phenformin; first compound 0.03162 µM) | relative viability (AT-7519 + Phenformin; first compound 0.3162 µM) | relative viability (AT-7519 + Phenformin; first compound 1 µM)
NCI-H2170 | 1.07 | 0.988 | 0.97 | 1.02 | 0.932 | 0.967 | 0.964 | 1.02 | 0.991 | 0.628 | 0.477 | 0.544 | 0.637 | 0.707 | 0.412 | 0.414 | 0.423 | 0.418
NCI-H2347 | 1.06 | 0.941 | 0.974 | 1.02 | 0.98 | 1.05 | 0.958 | 1.01 | 0.762 | 0.898 | 0.738 | 0.809 | 0.917 | 0.391 | 0.281 | 0.388 | 0.582 | 0.185
NCI-H1993 | 1.08 | 0.965 | 0.875 | 0.955 | 0.944 | 0.857 | 0.855 | 0.776 | 0.528 | 1.05 | 0.913 | 1.05 | 0.893 | 1.01 | 0.544 | 0.574 | 0.528 | 0.439
NCI-H322M | 1.07 | 0.93 | 0.901 | 0.877 | 0.951 | 0.913 | 0.947 | 0.773 | 0.798 | 1.35 | 1.22 | 1.19 | 1.16 | 1.22 | 0.796 | 0.784 | 0.612 | 0.448
NCI-H838 | 1 | 0.966 | 0.924 | 0.992 | 0.997 | 0.925 | 0.876 | 0.891 | 0.615 | 1.24 | 1.23 | 1.17 | 1.09 | 1.2 | 0.534 | 0.552 | 0.247 | 0.0953
HARA | 1.03 | 0.871 | 0.995 | 0.953 | 0.806 | 0.86 | 0.897 | 1.07 | 0.892 | 1.15 | 1.15 | 1.18 | 1.14 | 1.11 | 0.415 | 0.52 | 0.503 | 0.358
NCI-H2087 | 0.942 | 0.999 | 0.941 | 0.934 | 0.869 | 1.03 | 0.874 | 0.991 | 0.4 | 0.926 | 0.878 | 0.868 | 0.889 | 0.948 | 0.472 | 0.442 | 0.479 | 0.172
NCI-H1437 | 1 | 1 | 0.988 | 1.05 | 0.912 | 0.985 | 0.99 | 0.999 | 0.879 | 1.08 | 1.08 | 1.11 | 1.16 | 1.08 | 0.322 | 0.328 | 0.292 | 0.194
NCI-H1792 | 0.951 | 0.858 | 0.877 | 0.852 | 0.974 | 0.664 | 0.768 | 0.874 | 0.989 | 0.712 | 0.578 | 0.598 | 0.623 | 0.632 | 0.208 | 0.22 | 0.315 | 0.163
ChaGo-K-1 | 1.03 | 0.905 | 0.937 | 1.02 | 0.901 | 1.01 | 0.926 | 0.996 | 0.942 | 0.933 | 0.955 | 0.968 | 1.06 | 1 | 0.459 | 0.392 | 0.404 | 0.451
COR-L23 | 1.09 | 1.04 | 1 | 1.05 | 0.946 | 1.12 | 0.865 | 0.936 | 0.424 | 1 | 0.969 | 1.06 | 1.06 | 0.612 | 0.459 | 0.412 | 0.287 | 0.144
COR-L 105 | 0.988 | 0.78 | 0.95 | 1.06 | 0.865 | 0.924 | 0.933 | 0.769 | 0.54 | 0.905 | 0.7 | 0.779 | 0.75 | 0.843 | 0.451 | 0.489 | 0.301 | 0.286
LK-2 | 1.05 | 0.973 | 0.876 | 0.911 | 0.797 | 0.961 | 0.934 | 0.857 | 0.682 | 1.01 | 0.797 | 0.888 | 0.79 | 0.687 | 0.278 | 0.482 |  | 0.307
201T | 1.01 | 0.995 | 0.985 | 1.03 | 0.982 | 1.02 | 0.988 | 1.04 | 1.11 | 1.24 | 1.21 | 1.22 | 1.27 | 1.16 | 0.461 | 0.441 | 0.486 | 0.473
HCC-44 | 1.02 | 0.959 | 0.952 | 1.05 | 1 | 0.992 | 0.99 | 1.05 | 1.05 | 1.03 | 0.863 | 1.01 | 1.02 | 0.969 | 0.15 | 0.199 | 0.154 | 0.205
NCI-H596 | 1.06 | 0.987 | 0.982 | 1.03 | 1.01 | 0.928 | 0.925 | 1.04 | 0.912 | 0.946 | 0.973 | 1.06 | 0.964 | 1.01 | 0.732 | 0.653 | 0.642 | 0.714
H3255 | 1.01 | 0.965 | 1.01 | 1.03 | 1.04 | 1.04 | 0.96 | 0.969 | 0.838 | 0.502 | 0.477 | 0.487 | 0.604 | 0.646 | 0.489 | 0.384 | 0.313 | 0.31
